Source: US7897773B2, “Urea derivatives of tropane, their preparation and their therapeutic application” (Sanofi-Aventis, priority 2006, dated 2011)
Where “and” joins values, the source holds several entries; their conditions need not be identical. Identical values can stand only once. Counter-ions that a name gives are not always drawn. Like-named read-outs stand apart in the source and are kept apart here.

Columns and labels:
11beta-HSD1 enzyme = biological target: T1, 11beta-HSD1 enzyme (Homo sapiens, UniProt P28845); assay: SPA (Scintillation Proximity Assay) of 11beta-HSD1 inhibition, 384 well format; assay type: biochemical
T1 construct: made in house; host or cells: Saccharomyces cerevisiae
Method: The compounds according to the invention were the subject of pharmacological tests for determining their inhibitory activity on the 11beta-HSD1 enzyme which is an enzyme involved in lipid metabolism or glucose metabolism.
These tests consisted in measuring the in vitro inhibitory activity of the compounds of the invention by virtue of an SPA (Scintillation Proximity Assay) in 384 well format. The recombinant 11beta-HSD1 protein was produced in the yeast S. cerevisiae. The reaction was carried out by incubating the enzyme in the presence of ^3H-cortisone and NADPH, in the absence or in the presence of an increasing concentration of inhibitor. SPA beads coupled to an anti-mouse antibody, pre-incubated with an anti-cortisol antibody, made it possible to measure the amount of cortisol formed during the course of the reaction.
The inhibitory activity with respect to the 11beta-HSD1 enzyme is given by the concentration which inhibits 50% of the activity of 11beta-HSD1 (IC50).

11βHSD1 in the eyes = biological target: T2, 11βHSD1 in the eyes (Homo sapiens, UniProt P28845); details: normal volunteers; after seven days of treatment; cited from earlier work
T2 construct: The functional activity of 11βHSD1 in the eyes has been evaluated by studying the action of carbenoxolone in normal volunteers; host or cells: ocular tissue of human volunteers (in vivo)

[1] = recombinant 11beta-HSD1 produced in yeast S. cerevisiae, 3H-cortisone and NADPH, read-out: concentration which inhibits 50% of the activity of 11beta-HSD1 (IC50)

T1 sequence (P28845 whole entry, species assumed): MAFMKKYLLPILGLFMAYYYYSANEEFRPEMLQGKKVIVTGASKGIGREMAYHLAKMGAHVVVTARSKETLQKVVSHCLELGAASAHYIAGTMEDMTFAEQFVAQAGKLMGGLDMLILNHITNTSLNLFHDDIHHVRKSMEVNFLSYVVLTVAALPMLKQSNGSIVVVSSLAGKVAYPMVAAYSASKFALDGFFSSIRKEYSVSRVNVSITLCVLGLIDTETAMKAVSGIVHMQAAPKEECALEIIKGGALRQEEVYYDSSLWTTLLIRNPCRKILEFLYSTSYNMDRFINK
T2 sequence (P28845 whole entry): as the sequence (P28845 whole entry, species assumed) above

O=C(N1CCCc2ccccc21)N1C2CCC1CC(c1cccnc1)C2 (centres unmarked) (as salt: HCl) [Compound 4, 1-[(3-pyridin-3-yl-8-azabicyclo[3.2.1]oct-8-yl)carbonyl]-1,2,3,4-tetrahydroquinoline Hydrochloride]
melting point: 218 to 220 °C and 218 to 222 °C

O=C(N1CCCc2ccccc21)N1C2CCC1CC(c1ccccc1)C2 (centres unmarked) [Compound 7, (3,4-dihydro-2H-quinolin-1-yl)-(3-phenyl-8-azabicyclo-[3.2.1]oct-8-yl)methanone]
IC50 (11beta-HSD1 enzyme; [1]): 4 nM | melting point: 133 to 134 °C

CC1(C)[C@@H](OC(=O)CCC(=O)O)CC[C@]2(C)[C@H]3C(=O)C=C4[C@@H]5C[C@@](C)(C(=O)O)CC[C@]5(C)CC[C@@]4(C)[C@]3(C)CC[C@@H]12 [carbenoxolone]
IOP is reduced by (11βHSD1 in the eyes): 18%

O=C(N1CCCc2ccccc21)N1C2CCC1CC(c1cccnc1)C2 (centres unmarked) [Compound 4, 1-[(3-pyridin-3-yl-8-azabicyclo[3.2.1]oct-8-yl)carbonyl]-1,2,3,4-tetrahydroquinoline Hydrochloride]
IC50 (11beta-HSD1 enzyme): 19 nM

O=C(N1CCCc2ccccc21)N1C2C=C(c3cccnc3F)CC1CC2 (centres unmarked) [Compound 13, (3,4-dihydro-2H-quinolin-1-yl)-[3-(2-fluoropyridin-3-yl)-8-azabicyclo[3.2.1]oct-2-en-8-yl]methanone]
IC50 (11beta-HSD1 enzyme): 122 nM

O=C(N1CCCc2ccccc21)N1C2CCC1CC(c1ccc(F)nc1)C2 (centres unmarked) (as salt: HCl)
melting point: 98 to 99 °C

O=C(N1CCCc2ccccc21)N1C2C=C(c3cccc4[nH]ccc34)CC1CC2 (centres unmarked) [Compound 28, (3,4-dihydro-2H-quinolin-1-yl)-[3-(1H-indol-4-yl)-8-azabicyclo[3.2.1]oct-2-en-8-yl]methanone]
IC50 (11beta-HSD1 enzyme; [1]): 190 nM
